In US20210308196A1, “COMPOSITIONS AND METHODS TO PROMOTE HOST DEFENSE AND STIMULATE, EXPAND, AND/OR RESET T CELL REPERTOIRES” (EVOLVE BIOSYSTEMS, INC., priority 2018, published 2021):

What was measured:
[1] = Safety and tolerability of B. infantis EVC001 supplementation in healthy term nursing infants; format: in vivo, human; conditions: healthy term breastfed infants
Method: This trial was designed to show the effect of probiotic supplementation with Bifidobacterium longum subsp. Infantis (B. infantis EVC001) in healthy, term, nursing infants compared to an unsupplemented group. A dry composition of lactose and activated Bifidobacterium longum subsp. infantis was prepared starting with the cultivation of a purified isolate (Strain EVC001 ATCC Accession No. PTA-125180, Evolve Biosystems Inc., Davis, Calif., isolated from a human infant fecal sample) in the presence of BMO according to International Patent Application No. PCT/US2015/057226. […] This concentrated powder was then diluted by blending with infant formula grade lactose to an activity level of about 30 Billion CFU/g. This composition then was loaded into individual sachets at about 0.625 g/sachet and provided to breast-fed infants starting on or about day 7 of life and then provided on a daily basis for the subsequent 21 days.
This was a 60-day study starting with infants' date of birth as Day 1. […]
Infant fecal samples were collected throughout the 60-day trial. […] Safety and tolerability were determined from maternal reports of infants' feeding, stooling frequency, and consistency (using a modified Amsterdam infant stool scale—watery, soft, formed, hard; Bekkali et al. 2009), as well as GI symptoms and health outcomes. […]

[2] = Metabolomic analysis of infant feces (UPLC-MS/MS); format: in vivo, human
Method: Fecal samples from infants of Example 1 were evaluated as described below to characterize the fecal metabolome and what effects colonization by this organism may have on the infant's metabolism as a whole.
Sample Preparation: Fecal samples were maintained at −80° C. until processed. Samples were prepared using the automated MicroLab STAR® system from Hamilton Company. Several recovery standards were added prior to the first step in the extraction process for QC purposes. To remove protein, dissociate small molecules bound to protein or trapped in the precipitated protein matrix, and to recover chemically diverse metabolites, proteins were precipitated with methanol under vigorous shaking for 2 min (Glen Mills GenoGrinder 2000) followed by centrifugation. The resulting extract was divided into five fractions: two for analysis by two separate reverse phase (RP)/UPLC-MS/MS methods with positive ion mode electrospray ionization (ESI), one for analysis by RP/UPLC-MS/MS with negative ion mode ESI, one for analysis by HILIC/UPLC-MS/MS with negative ion mode ESI, and one sample was reserved for backup. Samples were placed briefly on a TurboVap® (Zymark) to remove the organic solvent. The sample extracts were stored overnight under nitrogen before preparation for analysis.
Preparation of study-tracking replicates. A small aliquot of each sample was pooled to create a study tracking sample, which was then injected periodically throughout the platform run. Variability detected in the study tracking sample among consistently detected biochemicals can be used to calculate an estimate of overall process and platform variability.
Ultrahigh Performance Liquid Chromatography-Tandem Mass Spectroscopy (UPLC-MS/MS): All methods utilized a Waters ACQUITY ultra-performance liquid chromatography (UPLC) and a Thermo Scientific Q-Exactive high resolution/accurate mass spectrometer interfaced with a heated electrospray ionization (HESI-II) source and Orbitrap mass analyzer operated at 35,000 mass resolution. The sample extract was dried then reconstituted in solvents compatible to each of the four methods. Each reconstitution solvent contained a series of standards at fixed concentrations to ensure injection and chromatographic consistency. One aliquot was analyzed using acidic positive ion conditions, chromatographically optimized for more hydrophilic compounds. In this method, the extract was gradient eluted from a C18 column (Waters UPLC BEH C18-2.1×100 mm, 1.7 μm) using water and methanol, containing 0.05% perfluoropentanoic acid (PFPA) and 0.1% formic acid (FA). Another aliquot was also analyzed using acidic positive ion conditions, however it was chromatographically optimized for more hydrophobic compounds. In this method, the extract was gradient eluted from the same afore mentioned C18 column using methanol, acetonitrile, water, 0.05% PFPA and 0.01% FA and was operated at an overall higher organic content. Another aliquot was analyzed using basic negative ion optimized conditions using a separate dedicated C18 column. The basic extracts were gradient eluted from the column using methanol and water, however with 6.5 mM Ammonium Bicarbonate at pH 8. The fourth aliquot was analyzed via negative ionization following elution from a HILIC column (Waters UPLC BEH Amide 2.1×150 mm, 1.7 μm) using a gradient consisting of water and acetonitrile with 10 mM Ammonium Formate, pH 10.8. The MS analysis alternated between MS and data-dependent MS' scans using dynamic exclusion. The scan range varied slighted between methods but covered 70-1000 m/z.
Data Extraction and Compound Identification: Raw data was extracted, peak-identified and QC processed using Proprietary hardware and software. […]

[3] = day 28, fold-change active:control
[4] = intervention/control, outlier removed

**Q.** Which “Adverse events versus unsupplemented group” value ([1]; 60-day study) does the source give for “Bifidobacterium longum subsp. infantis EVC001 [B. infantis EVC001]” here?
**A.** not different between groups

**Q.** And the Tolerability ([1]; at least 1.8×10^10 cfu once daily for 21 days from Day 7)?
**A.** well-tolerated

**Q.** And the “creatinine Active/Control” value [2, 3]?
**A.** 1.4

**Q.** What about the “gamma-glutamyl-alpha-lysine Active/Control” value [2, 3] of the same substance?
**A.** 3.3

**Q.** What about the “gamma-glutamyl-epsilon-lysine Active/Control” value [2, 3] of the same substance?
**A.** 2.4

**Q.** What about the “gamma-glutamylalanine Active/Control” value [2, 3] of the same substance?
**A.** 5.9

**Q.** What about the “gamma-glutamylcysteine Active/Control” value [2, 3] of the same substance?
**A.** 44.3

**Q.** And the “gamma-glutamylglutamate Active/Control” value [2, 3]?
**A.** 3.1

**Q.** What about the “gamma-glutamylglutamine Active/Control” value [2, 3] of the same substance?
**A.** 1.6

**Q.** And the “gamma-glutamylhistidine Active/Control” value [2, 3]?
**A.** 10.5

**Q.** What about the “gamma-glutamylisoleucine* Active/Control” value [2, 3] of the same substance?
**A.** 8.1

**Q.** And the “gamma-glutamylleucine Active/Control” value [2, 3]?
**A.** 1.6

**Q.** And the “gamma-glutamylmethionine Active/Control” value [2, 3]?
**A.** 19.3

**Q.** And the “gamma-glutamylphenylalanine Active/Control” value [2, 3]?
**A.** 4.2

**Q.** What about the “gamma-glutamylthreonine Active/Control” value [2, 3] of the same substance?
**A.** 7.15

**Q.** And the “gamma-glutamyltyrosine Active/Control” value [2, 3]?
**A.** 2.8

**Q.** What about the “gamma-glutamylvaline Active/Control” value [2, 3] of the same substance?
**A.** 3.3

**Q.** What about the “Gamma-glutamyl Threonine Int/con” value ([2]; intervention/control) of the same substance?
**A.** 5.35

**Q.** What about the “N-acetyl Threonine Int/con” value ([2]; intervention/control) of the same substance?
**A.** 3.07

**Q.** And the “Threonine Int/con” value ([2]; intervention/control)?
**A.** 3.21

**Q.** And the “Gamma-glutamyl Threonine Int/Con with outlier removed” value [2, 4]?
**A.** 7.15

**Q.** And the “N-acetyl Threonine Int/Con with outlier removed” value [2, 4]?
**A.** 3.67

**Q.** What about the “Threonine Int/Con with outlier removed” value [2, 4] of the same substance?
**A.** 4.35

**Q.** What about the Fecal retinol ([2]; versus control) of the same substance?
**A.** significantly reduced
